# Experimental data published in US20030050306A1, “Novel heteroaryl derivatives, their preparation and use” (H. Lundbeck A/S, priority 1999, published 2003).
# Counter-ions that a name gives are not always drawn.
row,Structure (SMILES),melting point
1,"Fc1ccc(SCCN2CCN(c3cccc4c3OCCO4)CC2)cc1 (as salt: oxalate) [Compound 3b, 1-(2,3-Dihydro-benzo[1,4]dioxin-5-yl)-4-[2-(4-fluoro-phenylsulfanyl)-ethyl]-piperazine]",200 to 202 °C
2,"Clc1cccc(Cl)c1SCCN1CCN(c2cccc3c2OCCO3)CC1 (as salt: oxalate) [Compound 3d, 1-[2-(2,6-Dichloro-phenylsulfanyl)-ethyl]-4-(2,3-dihydro-benzo[1,4]dioxin-5-yl)-piperazine]",188 to 191 °C (dec.)
3,"N#Cc1ccc(N2CCN(CCCOc3ccc(F)cc3Br)CC2)c2c1OCCO2 (as salt: oxalate) [Compound 6b, 8-{4-[3-(2-Bromo-4-fluoro-phenoxy)-propyl]-piperazin-1-yl}-2,3-dihydro-benzo[1,4]dioxine-5-carbonitrile]",152 to 154 °C
4,"N#Cc1ccc(N2CCN(CCCOc3ccccc3Cl)CC2)c2c1OCCO2 (as salt: oxalate) [Compound 6c, 8-{4-[3-(2-Chloro-phenoxy)-propyl]-piperazin-1-yl}-2,3-dihydro-benzo[1,4]dioxine-5-carbonitrile]",96 to 98 °C
